Read-outs that look alike come from different tables or passages of the source.
Columns and labels:
RXRβ = molecular target: T1, RXRβ (Mus musculus, UniProt P28704); assay: holoreceptor transactivation assay, RXRβ; assay type: cell-based; settings: for EC50: holoreceptor transactivation, RXRβ, read-out: RXR Trans. EC50 β; for Emax: relative to 10^-6 M cyclopropyl penta-2,4-dienoic acid reference (RXRs), read-out: % efficacy (RXRβ transactivation)
T1 construct: expressed in transfected cells
T1 sequence (P28704 1-520): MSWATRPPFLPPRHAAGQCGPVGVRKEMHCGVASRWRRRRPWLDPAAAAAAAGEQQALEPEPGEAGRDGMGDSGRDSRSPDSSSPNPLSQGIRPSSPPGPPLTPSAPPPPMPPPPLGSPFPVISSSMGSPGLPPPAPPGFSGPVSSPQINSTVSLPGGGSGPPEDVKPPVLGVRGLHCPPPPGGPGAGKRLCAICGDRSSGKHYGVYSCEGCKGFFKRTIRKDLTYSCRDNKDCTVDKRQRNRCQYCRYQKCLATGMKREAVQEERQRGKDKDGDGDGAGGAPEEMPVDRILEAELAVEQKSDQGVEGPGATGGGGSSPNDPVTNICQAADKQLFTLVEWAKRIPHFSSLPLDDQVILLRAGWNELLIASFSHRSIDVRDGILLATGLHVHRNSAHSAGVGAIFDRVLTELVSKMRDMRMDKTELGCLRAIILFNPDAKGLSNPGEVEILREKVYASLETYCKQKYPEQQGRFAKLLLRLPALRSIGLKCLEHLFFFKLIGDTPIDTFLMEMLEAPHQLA
From the text: (§1) Other assays described below, measure the ability of the compounds of the present invention to bind to, and/or activate various retinoid receptor subtypes. When in these assays a compound binds to a given receptor subtype and activates the transcription of a reporter gene through that subtype, then the compound is considered an agonist of that receptor subtype. […] In the below described assays the ability of the compounds to bind to RARα, RARβ, RARγ, RXRα, RXRβ and RXRγ receptors, and the ability or inability of the compounds to activate transcription of a reporter gene through these receptor subtypes can be tested. […] However, some of the compounds of the invention may behave as retinoid antagonists or partial antagonists and/or as inverse agonists. Because of the complex distribution of the different retinoid receptors in various organs of the mammalian body partial agonists and partial antagonists and compounds which have the characteristics of both may lend themselves to particularly useful therapeutic applications and may avoid serious side effects of conventional retinoid drugs.
(§2) A holoreceptor transactivation assay and a ligand binding assay which measure the antagonist/agonist like activity of the compounds of the invention, or their ability to bind to the several retinoid receptor subtypes, respectively, are described in published PCT Application No. WO WO93/11755 (particularly on pages 30-33 and 37-41) published on Jun. 24, 1993, the specification of which is also incorporated herein by reference. A detailed experimental procedure for holoreceptor transactivations has been described by Heyman et al. Cell 68, 397-406, (1992); Allegretto et al. J. Biol. Chem. 268, 26625-26633, and Mangelsdorf et al. The Retinoids: Biology, Chemistry and Medicine, pp 319-349, Raven Press Ltd., New York, which are expressly incorporated herein by reference. The results obtained in this assay are expressed in EC50 numbers, as they are also in the chimeric receptor transactivation assay. The results of ligand binding assay are expressed in Kd numbers. (See Cheng et al. Biochemical Pharmacology Vol. 22 pp 3099-3108, expressly incorporated herein by reference.)
(§3) Table 1 discloses the activity of certain exemplary compounds of the invention in the above-described chimeric receptor transactivation assay, holoreceptor transactivation assay and a ligand binding assays. Particularly, the transactivation data pertaining to RAR receptors were obtained in the chimeric assay, and the data pertaining to transactivation of RXR receptors were obtained in the holoreceptor transactivation assay.

RXRα = molecular target: T2, RXRα (Homo sapiens, UniProt P19793); assay: ligand binding assay, RXRα; settings: read-out: RXR Bind Ki α
T2 construct: expressed in transfected cells
T2 sequence (P19793 1-462): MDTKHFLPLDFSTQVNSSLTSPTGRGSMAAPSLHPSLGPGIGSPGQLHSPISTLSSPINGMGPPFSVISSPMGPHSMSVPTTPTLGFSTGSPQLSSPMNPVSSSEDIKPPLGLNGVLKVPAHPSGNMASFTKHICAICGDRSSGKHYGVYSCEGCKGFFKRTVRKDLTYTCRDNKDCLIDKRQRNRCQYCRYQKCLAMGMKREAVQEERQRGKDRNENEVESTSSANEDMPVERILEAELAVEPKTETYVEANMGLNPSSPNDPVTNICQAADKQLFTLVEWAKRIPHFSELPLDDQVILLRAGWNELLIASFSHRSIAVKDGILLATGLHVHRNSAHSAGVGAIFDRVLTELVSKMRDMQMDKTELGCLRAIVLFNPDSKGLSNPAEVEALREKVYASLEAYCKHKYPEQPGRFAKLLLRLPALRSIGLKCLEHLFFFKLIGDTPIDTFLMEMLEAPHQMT
From the text: as §1, §2, §3

RXRγ = molecular target: T3, RXRγ (Mus musculus, UniProt P28705); assay: holoreceptor transactivation assay, RXRγ; assay type: cell-based; settings: for EC50: holoreceptor transactivation, RXRγ, read-out: RXR Trans. EC50 γ; for Emax: relative to 10^-6 M cyclopropyl penta-2,4-dienoic acid reference (RXRs), read-out: % efficacy (RXRγ transactivation)
T3 construct: expressed in transfected cells
T3 sequence (P28705 1-463): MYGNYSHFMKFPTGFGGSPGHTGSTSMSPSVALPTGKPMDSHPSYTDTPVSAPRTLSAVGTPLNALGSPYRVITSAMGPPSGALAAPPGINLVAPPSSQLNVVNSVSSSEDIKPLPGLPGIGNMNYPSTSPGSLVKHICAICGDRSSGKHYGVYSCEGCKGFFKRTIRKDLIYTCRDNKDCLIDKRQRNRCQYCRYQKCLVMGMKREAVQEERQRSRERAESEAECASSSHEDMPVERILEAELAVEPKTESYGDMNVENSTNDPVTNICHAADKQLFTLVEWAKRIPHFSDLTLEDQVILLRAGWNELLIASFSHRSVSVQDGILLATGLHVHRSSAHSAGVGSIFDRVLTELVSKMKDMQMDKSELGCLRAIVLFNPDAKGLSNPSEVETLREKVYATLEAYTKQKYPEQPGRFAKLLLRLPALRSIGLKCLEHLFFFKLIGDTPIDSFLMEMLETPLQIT
From the text: as §1, §2, §3

RARα = molecular target: T4, RARα (Homo sapiens, UniProt P10276); assay: ligand binding assay, RARα
T4 sequence (P10276 1-462): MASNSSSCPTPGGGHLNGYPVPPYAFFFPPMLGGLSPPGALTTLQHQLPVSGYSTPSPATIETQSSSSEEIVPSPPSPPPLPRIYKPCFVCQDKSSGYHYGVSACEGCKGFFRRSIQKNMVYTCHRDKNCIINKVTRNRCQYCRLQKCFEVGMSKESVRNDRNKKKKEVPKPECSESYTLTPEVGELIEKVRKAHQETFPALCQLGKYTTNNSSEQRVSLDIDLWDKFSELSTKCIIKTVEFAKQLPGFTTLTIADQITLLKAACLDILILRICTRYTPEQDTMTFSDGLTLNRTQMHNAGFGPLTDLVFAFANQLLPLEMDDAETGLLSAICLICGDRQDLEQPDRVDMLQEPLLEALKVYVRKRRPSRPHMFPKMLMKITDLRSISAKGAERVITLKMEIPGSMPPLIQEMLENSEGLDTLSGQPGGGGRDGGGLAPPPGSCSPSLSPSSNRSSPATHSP
From the text: as §1, §2, §3

EC50 (RXRβ) [nM]	Ki (RXRα) [nM]	EC50 (RXRγ) [nM]	Ki (RARα; read-out: RAR Bind. Ki α) [nM]	Emax (RXRβ) [%]	Emax (RXRγ) [%]	Ki (RARα; heading: RAR Bind. Ki α) [nM]	Compound
58	> 1000	19	> 10000	58	108		CC(C)c1cc(N(c2ccc(C(=O)O)cc2)C(C)C)cc2c1OCC2(C)C [Compound 43]
171	11	20	> 1000	33	48		CC(C)N(c1ccc(C(=O)O)cc1)c1cc(C(C)(C)C)c2c(c1)C(C)(C)CO2 [Compound 44, 4-[Isopropyl-(7-t-butyl-3,3-dimethyl-2,3-dihydro-benzofuran-5-yl)-amino]-benzoic acid]
71	71	17	12000	92	97		Cc1c(N(c2ccc(C(=O)O)cc2)C(C)C)cc2c(c1C(C)(C)C)OCC2(C)C [Compound 73, 4-[Isopropyl-(7-t-butyl-3,3,6-trimethyl-2,3-dihydro-benzofuran-5-yl)-amino]-benzoic acid]
1000	1000	63	> 10000	100	140		CCN(c1ccc(C(=O)O)cc1)c1ccc2c(c1)C(C)(C)OC2(C)C [Compound 83, 4-[Ethyl-(1,1,3,3-tetramethyl-1,3-dihydro-isobenzofuran-5-yl)-amino]-benzoic acid]
1000	1500	51		184	124	> 10000	CCCN(c1ccc(C(=O)O)cc1)c1ccc2c(c1)C(C)(C)OC2(C)C [Compound 84, 4-[n-Propyl-(1,1,3,3-tetramethyl-1,3-dihydro-isobenzofuran-5-yl)-amino]-benzoic acid]
1000	> 1000	700	> 10000	60	197		CCCCN(c1ccc(C(=O)O)cc1)c1ccc2c(c1)C(C)(C)OC2(C)C [Compound 85, 4-[n-Butyl-(1,1,3,3-tetramethyl-1,3-dihydro-isobenzofuran-5-yl)-amino]-benzoic acid]
1000	650	765	> 10000	65	134		CC(C)N(c1ccc(C(=O)O)cc1)c1ccc2c(c1)C(C)(C)OC2(C)C [Compound 87, 4-[i-Propyl-(1,1,3,3-tetramethyl-1,3-dihydro-isobenzofuran-5-yl)-amino]-benzoic acid]

The next lines start with the molecule.

Compound	EC50 (RXRβ) [nM]	Ki (RXRα) [nM]	EC50 (RXRγ) [nM]	Ki (RARα; read-out: RAR Bind. Ki α) [nM]	Emax (RXRβ) [%]	Emax (RXRγ) [%]	Ki (RARα; heading: RAR Bind. Ki α) [nM]
CCN(c1ccc(C(=O)O)cc1)c1cc(C)c2c(c1)C(C)(C)CO2 [Compound 27, 4-[Ethyl-(3,3,7-trimethyl-2,3-dihydro-benzofuran-5-yl)-amino]-benzoic acid]	> 1000	15000	> 1000	30000			
CCc1cc(N(CC)c2ccc(C(=O)O)cc2)cc2c1OCC2(C)C [Compound 29, 4-[Ethyl-(3,3-dimethyl-7-ethyl-2,3-dihydro-benzofuran-5-yl)-amino]-benzoic acid]	800	> 1000	692	> 10000	70	130	
CC(C)c1cc(N(C)c2ccc(C(=O)O)cc2)cc2c1OCC2(C)C [Compound 30, 4-[Methyl-(3,3-dimethyl-7-isopropyl-2,3-dihydro-benzofuran-5-yl)-amino]-benzoic acid]	> 1000	11000	> 1000	16000	10	70	
CCN(c1ccc(C(=O)O)cc1)c1cc(C(C)C)c2c(c1)C(C)(C)CO2 [Compound 31, 4-[Ethyl-(3,3-dimethyl-7-isopropyl-2,3-dihydro-benzofuran-5-yl)-amino]-benzoic acid]	1000	1.8	85	25000	75	125	
CCN(c1ccc(C(=O)O)cc1)c1cc(C(C)(C)C)c2c(c1)C(C)(C)CO2 [Compound 32, 4-[Ethyl-(7-t-butyl-3,3-dimethyl-2,3-dihydro-benzofuran-5-yl)-amino]-benzoic acid]	1000	222	230	> 1000	50	122	
CCc1cc(N(c2ccc(C(=O)O)cc2)C(C)C)cc2c1OCC2(C)C [Compound 42, 4-[Isopropyl-(3,3-dimethyl-7-ethyl-2,3-dihydro-benzofuran-5-yl)-amino]-benzoic acid]	> 1000	> 1000	511	> 10000	30	132	

Reference: patent US6093838A, “Amines substituted with a dihydro-benzofuranyl or with a dihydro-isobenzofuranyl group, an aryl or heteroaryl group and an alkyl group, having retinoid-like biological activity” (Allergan Sales, Inc., priority 1999, dated 2000)
